# Paper PMC11788587, “Validating Low‐Dose Iohexol as a Marker for Glomerular Filtration Rate by In Vitro and In Vivo Studies” (Clinical and Translational Science, 2025)
# Where two headings read alike, the source gives them in different places.
# Columns and labels:
# hMATE2K = molecular target: T1, hMATE2K (Homo sapiens, UniProt Q86VL8); assay: Substrate assessment: iohexol uptake in 293 cells expressing hMATE2K vs control; type: in vitro ADME; conditions: 10 μM iohexol, median (95% CI)
# T1 construct: expressed in transfected cells; host or cells: HEK-293 (293) cells, pEBTetD plasmid, doxycycline-induced
# T1 sequence (Q86VL8 1-566 isoform Q86VL8-3): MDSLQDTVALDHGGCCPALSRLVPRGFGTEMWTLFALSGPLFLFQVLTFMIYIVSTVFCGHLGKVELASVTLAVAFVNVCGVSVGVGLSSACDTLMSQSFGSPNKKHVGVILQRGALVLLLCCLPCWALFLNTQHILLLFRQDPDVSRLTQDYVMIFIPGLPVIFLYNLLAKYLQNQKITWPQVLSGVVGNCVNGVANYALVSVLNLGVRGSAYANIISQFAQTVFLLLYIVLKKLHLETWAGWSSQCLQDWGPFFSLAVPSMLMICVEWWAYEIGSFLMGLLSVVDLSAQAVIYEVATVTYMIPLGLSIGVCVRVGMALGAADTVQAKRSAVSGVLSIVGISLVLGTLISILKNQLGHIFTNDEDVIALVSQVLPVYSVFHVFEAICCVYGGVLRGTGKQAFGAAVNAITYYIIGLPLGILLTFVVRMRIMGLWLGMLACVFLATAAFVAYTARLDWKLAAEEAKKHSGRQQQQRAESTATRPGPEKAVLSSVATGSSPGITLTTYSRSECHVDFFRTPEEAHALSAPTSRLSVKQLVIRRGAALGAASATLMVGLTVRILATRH
# Description: (§1) We characterized the inhibitory potential of iohexol on major drug transporters recommended by regulatory agencies, which were previously assessed in a clinical transporter phenotyping cocktail study. These transporters include hOAT1, hOAT3, hOCT1, hOCT2, hMATE1, hMATE2K, human organic anion transporter polypeptides (hOATP)1B1, hOATP1B3, and human multidrug resistance protein (hMDR)1. Additionally, we investigated whether iohexol is a substrate for any of the renal transporters among these, including hOAT1/3, hOCT1/2, and hMATE1/2K. Cell‐based uptake assays were used to assess the activities of hOAT1/3, hOCT1/2, hMATE1/2K, and hOATP1B1/1B3. Inside‐out membrane vesicle uptake assays were used to evaluate the activity of hMDR1.
# For substrate assessments, iohexol was incubated with stably transfected HEK‐293 cells expressing one of the following transporters: hOAT1, hOAT3, hOCT1, hOCT2, hMATE1, or hMATE2K, as well as with control cells lacking transporter expression. Stably transfected cell lines containing pEBTetD plasmids with wild‐type human transporter cDNAs were generated as previously described. Transporter expression was induced by adding 1 μg/mL doxycycline to the growth medium for at least 20 h. Iohexol would be considered a substrate for these transporters if: (1) the ratio of iohexol uptake in cells expressing the transporter to that in control cells was ≥ 2, and (2) a known inhibitor of the transporter reduced iohexol uptake to ≤ 50% at concentrations ≥ 10 times its inhibition constant or half‐maximal inhibitory concentration.
# Uptake assays were performed using stably transfected 293 cells, with or without the expression of one of the following transporters: hOAT1, hOAT3, hOCT1, hOCT2, hMATE1, or hMATE2K, as previously described.^1
# For the substrate assessment, cells were incubated with 10 µM iohexol for 10 minutes and 30 minutes for each transporter. Inhibition assays were performed using specific standard substrates for each transporter: 10 µM para-aminohippuric acid (PAH) for hOAT1, 3 µM estrone-3-sulfate (E3S) for hOAT3, 50 µM metformin for hOCT1, 5 µM metformin for hOCT2, and 3 µM 1-methyl-4-phenylpyridinium (MPP+) for hMATE1 and hMATE2K. […]
# (§2) R version 4.2.1 (R Foundation for Statistical Computing, Vienna, Austria) was used for statistical evaluations and data visualization. The data analysis approach for the in vitro study was detailed by Hsin CH et al..^1 In brief, for transport assays, the initial uptake rate was calculated by normalizing the substrate concentration to both the protein concentration and the incubation time for each dish or well. The transporter-mediated uptake rate (net uptake) was determined by performing an element-wise subtraction of uptake rates from different conditions. […]
# [1] = Clinical trial in healthy volunteers, noncompartmental analysis of plasma and urine; type: in vivo, human; conditions: for CL (plasma clearance, dose/AUC) / Ae0‐t (cumulative urinary excretion of unchanged iohexol) / Rmax (maximum observed excretion rate) / Vd / half-life / dose excreted / AUC: fasting, geomean (geoSD); for CL (plasma clearance, dose/AUC) / Vd / half-life / AUC: n=12, plasma; for Vd / half-life / dose excreted / AUC: human, iv; for Vd: read-out: Vz; for half-life: read-out: t1/2,λz (converted); for dose excreted: read-out: Recovery (percentage of dose recovered in urine)
# hOAT1 = molecular target: T2, hOAT1 (Homo sapiens, UniProt Q4U2R8); assay: Inhibition of hOAT1-mediated PAH uptake, stably transfected 293 cells; type: cell-based; conditions: substrate 10 µM PAH, median (95% CI)
# T2 construct: expressed in transfected cells; host or cells: HEK-293 (293) cells, pEBTetD plasmid, doxycycline-induced
# T2 sequence (Q4U2R8 1-563): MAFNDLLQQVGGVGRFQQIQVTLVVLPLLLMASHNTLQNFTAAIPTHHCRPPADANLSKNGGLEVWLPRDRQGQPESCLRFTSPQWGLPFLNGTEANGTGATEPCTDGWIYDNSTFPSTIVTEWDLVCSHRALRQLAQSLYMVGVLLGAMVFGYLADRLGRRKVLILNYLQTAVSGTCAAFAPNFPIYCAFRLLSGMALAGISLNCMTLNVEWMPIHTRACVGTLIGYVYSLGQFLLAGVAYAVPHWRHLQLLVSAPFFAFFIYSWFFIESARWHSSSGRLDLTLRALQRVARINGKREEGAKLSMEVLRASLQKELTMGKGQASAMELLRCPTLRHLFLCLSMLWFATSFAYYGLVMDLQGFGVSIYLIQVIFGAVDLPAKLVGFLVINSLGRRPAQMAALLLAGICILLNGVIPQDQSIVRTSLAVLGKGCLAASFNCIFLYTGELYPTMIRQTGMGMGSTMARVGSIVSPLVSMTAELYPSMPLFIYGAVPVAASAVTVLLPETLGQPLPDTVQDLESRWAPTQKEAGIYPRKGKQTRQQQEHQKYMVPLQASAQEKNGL
# Description: as §1
# To determine the maximal inhibitory potential of iohexol, intracellular accumulation of a standard substrate was measured with and without the clinically relevant highest concentrations of iohexol. Control inhibitors were tested in each experiment.
# In all subsequent in vitro studies, control experiments were conducted to validate the results. These included positive controls for substrates and inhibitors, as well as cells either without transporter expression or transfected with an empty vector, and control vesicles. Each condition, including cells or vesicles with the transporter and their respective controls, was analyzed in at least three replicates. For detailed information on materials, methods, and data analysis techniques used, refer to the Supporting Information. […]
# as §2
# [2] = Reference: 3235 mg i.v. bolus, urine, n=10
# [3] = Test: 259 mg i.v. bolus, urine, n=10
compound,measurement,setting,value
CC(=O)N(CC(O)CO)c1c(I)c(C(=O)NCC(O)CO)c(I)c(C(=O)NCC(O)CO)c1I (stereo not shown) [iohexol],Differences in intracellular accumulation (expression on minus off),hMATE2K; 10 minutes,-0.36 (-1.1 to 0.24) pmol/mg protein
same,Uptake ratio (transporter-expressing vs non-expressing cells),hMATE2K; 10 minutes,0.95 (0.81 to 1.1)
same,Differences in intracellular accumulation (expression on minus off),hMATE2K; 30 minutes,0.62 (-0.38 to 1.5) pmol/mg protein
same,Uptake ratio (transporter-expressing vs non-expressing cells),hMATE2K; 30 minutes,1.1 (0.93 to 1.4)
same,T/R ratio (90% CIs) of urinary recovery,"[1]; 259 mg test vs 3235 mg reference, urine, n=10",1.06 (0.960–1.17)
same,"CL (plasma clearance, dose/AUC)",[1]; Reference: 3235 mg i.v. bolus,5.43 (1.19) L/h
same,Ae0‐t (cumulative urinary excretion of unchanged iohexol),[1]; [2],3364 (1.14) mg
same,Rmax (maximum observed excretion rate),[1]; [2],951 (1.12) mg/h
same,"CL (plasma clearance, dose/AUC)",[1]; Test: 259 mg i.v. bolus,5.46 (1.15) L/h
same,Ae0‐t (cumulative urinary excretion of unchanged iohexol),[1]; [3],273 (1.09) mg
same,Rmax (maximum observed excretion rate),[1]; [3],73.7 (1.27) mg/h
same,Vd,[1]; Reference: 3235 mg i.v. bolus,32.4 L
same,half-life,[1]; Reference: 3235 mg i.v. bolus,4.14 h
same,dose excreted,[1]; [2],103%
same,Vd,[1]; Test: 259 mg i.v. bolus,26.1 L
same,half-life,[1]; Test: 259 mg i.v. bolus,3.32 h
same,dose excreted,[1]; [3],106%
same,AUC,"[1]; 259 mg, Test: 259 mg i.v. bolus, read-out: AUC0‐t",46.5 µg·h/mL
same,AUC,"[1]; 259 mg, Test: 259 mg i.v. bolus, read-out: AUC0‐∞",46.7 µg·h/mL
same,AUC,"[1]; 3235 mg, Reference: 3235 mg i.v. bolus, read-out: AUC0‐t",598 µg·h/mL
same,AUC,"[1]; 3235 mg, Reference: 3235 mg i.v. bolus, read-out: AUC0‐∞",600 µg·h/mL
same,CVintra of CL,"[1]; intraindividual coefficient of variation, test vs reference",5.29%
same,Inhibitory effect (% reduction of specific activity),hOAT1; 20 mM iohexol,no notable inhibitory effects
same,inhibition at 1000 µM,"hOAT1; HEK293, 1 mM iohexol, read-out: Inhibitory effect (% reduction of specific activity)",-0.45%
same,inhibition at 20000 µM,"hOAT1; HEK293, 20 mM iohexol, read-out: Inhibitory effect (% reduction of specific activity)",3.1%
